Here are results for five molecules from article PMC9961948, “Interaction of Amphipathic Peptide from Influenza Virus M1 Protein with Mitochondrial Cytochrome Oxidase” (International Journal of Molecular Sciences, 2023).

“And” between values parts separate entries of the source, which are not always exact repeats. Equal values may be shown once. “Also recorded” adds a separate entry of the source. Read-outs that look alike come from different tables or passages of the source.

Experiment [1] addresses T1, cytochrome c oxidase (CcO) purified from heart mitochondria (Bos taurus, UniProt P00396+P07471+P68530).
T1 construct: Cytochrome c oxidase was purified from the heart mitochondria of Bos taurus; from tissue; host or cells: bovine heart mitochondria
Put plainly: Cytochrome oxidase activity of solubilized mitochondrial CcO (oxygen uptake). In kind it is biochemical. To be noted: for enzyme activation at low concentrations: solubilized CcO from bovine heart mitochondria and from R. sphaeroides, authors' unpublished data.

Experiment [2] can be described thus: Permeabilization of calcein-loaded asolectin liposomes (calcein release). To be noted: 5 μM peptide.
The target in experiment [3] is T2, CcO in rat liver mitochondria (Rattus norvegicus, UniProt P00406+P05503).
T2 construct: Rat liver mitochondria were isolated by differential centrifugation; from tissue; host or cells: rat liver mitochondria
Put plainly: CcO activity in the mitochondrial membrane (respiration of rat liver mitochondria). Type of experiment: biochemical. The conditions noted are these: 100 μM peptide added in the course of respiration.

Experiment [4] addresses T1, cytochrome c oxidase (CcO) purified from heart mitochondria. The conditions noted are these: earlier studies on steroids, Triton X-100 and thyroid hormones; ref [47],[48],[49]; read-out: dissociation constant of the complex between DM and BABS; cited from earlier work. From the text: The inhibition is notable by features characteristic of BABS regulatory site ligands such as some steroids and vitamin D [47], Triton Х-100 [48], and thyroid hormones Т3, Т4 [49]. […] The resistance of peroxidase activity is explained by the fact that the BABS ligands block the proton channel K, which is not involved in the p ...

T2 sequence (P00406 whole entry, other chains not shown): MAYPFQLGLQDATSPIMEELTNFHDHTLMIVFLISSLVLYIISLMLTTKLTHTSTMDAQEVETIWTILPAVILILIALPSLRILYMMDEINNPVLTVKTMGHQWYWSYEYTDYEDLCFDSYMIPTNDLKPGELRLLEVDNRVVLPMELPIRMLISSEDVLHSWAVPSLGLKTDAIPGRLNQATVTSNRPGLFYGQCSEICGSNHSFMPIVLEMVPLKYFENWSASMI

For Ac-WVGMALENRKLKKDRLKVLKMLRWT-NH2 [A1], in experiment [1] (solubilized bovine heart CcO 20 nM, oxygen uptake, Clark electrode, 25 °C, BM 50 mM Hepes/Tris pH 7.6, 50 mM KCl, 1 mM (0.05%) DM, 5 mM ascorbate, 0.1 mM TMPD, 10 μM cytochrome c, fit by Equation (1), read-out: Inhibition of CcO, Solubilized, Ki(app)), the Ki turned out to be 0.0208 mM. Besides, in experiment [2], the “calcein release compared with P4 and A4” value is recorded as “more than two orders of magnitude slower”; the “rate of fluorescence increase (calcein release)” value is < 1 % of the final level per 1 min. For the same molecule, the “effect on respiration rate of mitochondria” value in experiment [3] is on record as “does not reduce the rate of enzyme activity; also recorded: almost does not change”.

Take Ac-STKLWEMLVELGNMDKAVKLWRKLSR-NH2 [A4]: in experiment [2] (100% = after Triton X-100 0.1%), the “time to reach the 100% level of calcein release” value is reported as 3 min. Moreover, the “t1/2 of fluorescence increase (calcein release)” value in experiment [2] (liposomes 0.1 mg lipid/mL, 20 mM MOPS/Tris pH 7.3, 0.2 mM EDTA, fluorescence 520 nm (excitation 490 nm)) is on record as ~18 s. The “effect on respiration rate of mitochondria” value in experiment [3] is reported as “complete inhibition”.

For the molecule `C[C@H](CCC(=O)O)[C@H]1CC[C@H]2[C@@H]3[C@H](O)C[C@@H]4C[C@H](O)CC[C@]4(C)[C@H]3C[C@H](O)[C@]12C` [cholate, reference compound], the “enzyme activation at low concentrations” value in experiment [1] is given as 1.5–2 fold.

Consider `CCCCCCCCCCCCO[C@@H]1O[C@H](CO)[C@@H](O[C@H]2O[C@H](CO)[C@@H](O)[C@H](O)[C@H]2O)[C@H](O)[C@H]1O` [DM, dodecyl-maltoside, reference compound], for which the Kd is 500 µM and ~500 µM in experiment [1] (dissociation constant of the enzyme-DM complex in the absence of P4 (Kc), solubilized mitochondrial CcO, X-axis intercept of Ki(app) for P4 versus [DM]); 1000 to 1500 µM in experiment [4].

`C[C@H](CCC(=O)O)[C@H]1CC[C@H]2[C@@H]3CC[C@@H]4C[C@H](O)CC[C@]4(C)[C@H]3C[C@H](O)[C@]12C` [deoxycholate, reference compound]: the “enzyme activation at low concentrations” value in experiment [1] is on record as 1.5–2 fold. In addition, the “maximum activation of CcO” value in experiment [1] (solubilized mitochondrial CcO, 1 mM DM, 1.2 mM deoxycholate) was “approximately twice”.
